Measurements: PMC9519446, “Discovery of an Orally Active Benzoxaborole Prodrug Effective in the Treatment of Chagas Disease in Non-human Primates” (Nature microbiology, 2022)
Where “and” joins values, the source holds several entries; their conditions need not be identical. Equal values may be shown once.

Assay: NHP health screening: serum chemistry
Assay type: in vivo, rhesus macaques (Macaca mulatta)
[1] = End of study bleed, Mean of treated F animals
[2] = End of study bleed, individual treated animals
[3] = Mid-dosing bleed, Mean of treated females
[4] = Mid-dosing bleed, treated animals, individual values

Description: Under light-anesthesia/sedation, peripheral blood samples were collected from each animal prior to treatment and at 7 time points following. Blood analysis (CBC and serum chemistry assays) and physical exams to evaluate the health of the study animals were performed on each animal prior to the beginning of the study and also at three time points during the treatment protocol (see Supplementary data).

In the case of `Cc1c(C(=O)N[C@H](C(=O)OCC2CCOCC2)C(C)C)ccc2c1B(O)OC2` [AN15368], the Agap [1] is reported as 15 Meq/L, the Alb [1] is reported as 3.916 G/Dl and the Alp [1] is reported as 92.2632 Iu/L. It also gave an Alt [1] of 53.7368 Iu/L, an Ast [1] of 63.5789 Iu/L and a Bun [1] of 17.7895 Mg/Dl. The Ca [1] was 9.232 Mg/Dl, the Chol [1] was 138.105 mg/dL and the Ck [1] was 2260.42 Iu/L. The Cl [1] was 109.526 Meq/L, the Crea [1] was 0.7289 Mg/Dl and the Fe [1] was 111.895 µg/dL. It also gave a Ggt [1] of 45 Iu/L, a Glob [1] of 2.684 G/Dl and a Gluc [1] of 62.2105 Mg/Dl. It also gave a K [1] of 3.584 Meq/L, a Ldh [1] of 581.684 Iu/L and a Na [1] of 147.474 Meq/L. The Osmo [1] was 284.105 Mosm/Kg, the Phos [1] was 3.284 Mg/Dl and the Tbil [1] was 0.2074 Mg/Dl. For the same compound, the Tco2 [1] was 26.6842 Meq/L, the Tibc [1] was 363.263 µg/dL and the Tp [1] was 6.589 G/Dl. The Trig [1] was 78.7895 Mg/Dl, the Agap [2] was 18 Meq/L and 14 Meq/L and 15 Meq/L and 13 Meq/L and 17 Meq/L and 16 Meq/L and the Alb [2] was 4.2 G/Dl and 3.6 G/Dl and 3.9 G/Dl and 3.5 G/Dl and 4 G/Dl and 3.3 G/Dl and 2.9 G/Dl and 4.4 G/Dl and 3.8 G/Dl and 4.7 G/Dl and 4.3 G/Dl. For the same compound, the Alp [2] was 132 Iu/L and 94 Iu/L and 68 Iu/L and 54 Iu/L and 70 Iu/L and 117 Iu/L and 84 Iu/L and 65 Iu/L and 131 Iu/L and 60 Iu/L and 92 Iu/L and 150 Iu/L and 113 Iu/L and 97 Iu/L and 63 Iu/L and 80 Iu/L and 71 Iu/L and 89 Iu/L and 76 Iu/L, the Alt [2] was 39 Iu/L and 36 Iu/L and 27 Iu/L and 30 Iu/L and 87 Iu/L and 53 Iu/L and 95 Iu/L and 29 Iu/L and 76 Iu/L and 195 Iu/L and 45 Iu/L and 25 Iu/L and 70 Iu/L and 69 Iu/L and 18 Iu/L and 22 Iu/L and the Ast [2] was 34 Iu/L and 33 Iu/L and 18 Iu/L and 23 Iu/L and 28 Iu/L and 35 Iu/L and 32 Iu/L and 29 Iu/L and 21 Iu/L and 199 Iu/L and 392 Iu/L and 24 Iu/L and 25 Iu/L and 203 Iu/L and 16 Iu/L. For the same compound, the Bun [2] was 19 Mg/Dl and 14 Mg/Dl and 15 Mg/Dl and 17 Mg/Dl and 18 Mg/Dl and 16 Mg/Dl and 13 Mg/Dl and 38 Mg/Dl and 29 Mg/Dl and 11 Mg/Dl, the Ca [2] was 9.6 Mg/Dl and 9.1 Mg/Dl and 8.7 Mg/Dl and 9.3 Mg/Dl and 9.5 Mg/Dl and 9.2 Mg/Dl and 8.8 Mg/Dl and 8.5 Mg/Dl and 8.2 Mg/Dl and 9.7 Mg/Dl and 9.4 Mg/Dl and 10.1 Mg/Dl and the Chol [2] was 127 mg/dL and 152 mg/dL and 153 mg/dL and 132 mg/dL and 115 mg/dL and 168 mg/dL and 197 mg/dL and 162 mg/dL and 129 mg/dL and 141 mg/dL and 101 mg/dL and 85 mg/dL and 158 mg/dL and 126 mg/dL and 118 mg/dL and 151 mg/dL and 136 mg/dL and 110 mg/dL. The Ck [2] was 224 Iu/L and 407 Iu/L and 173 Iu/L and 274 Iu/L and 432 Iu/L and 485 Iu/L and 1737 Iu/L and 198 Iu/L and 506 Iu/L and 146 Iu/L and 14833 Iu/L and 15016 Iu/L and 403 Iu/L and 468 Iu/L and 205 Iu/L and 374 Iu/L and 6914 Iu/L and 290 Iu/L and 124 Iu/L and 171 Iu/L, the Cl [2] was 111 Meq/L and 110 Meq/L and 109 Meq/L and 107 Meq/L and 104 Meq/L and 108 Meq/L and 112 Meq/L and the Crea [2] was 0.7 Mg/Dl and 0.59 Mg/Dl and 0.62 Mg/Dl and 0.68 Mg/Dl and 0.76 Mg/Dl and 0.63 Mg/Dl and 0.77 Mg/Dl and 0.78 Mg/Dl and 0.71 Mg/Dl and 0.75 Mg/Dl and 1.07 Mg/Dl and 0.83 Mg/Dl and 0.58 Mg/Dl and 0.57 Mg/Dl and 0.74 Mg/Dl and 0.85 Mg/Dl and 0.66 Mg/Dl. The Fe [2] was 161 µg/dL and 147 µg/dL and 112 µg/dL and 151 µg/dL and 121 µg/dL and 108 µg/dL and 127 µg/dL and 95 µg/dL and 137 µg/dL and 110 µg/dL and 23 µg/dL and 34 µg/dL and 87 µg/dL and 133 µg/dL and 143 µg/dL and 32 µg/dL and 183 µg/dL and 103 µg/dL and 93 µg/dL, the Ggt [2] was 49 Iu/L and 44 Iu/L and 32 Iu/L and 38 Iu/L and 45 Iu/L and 53 Iu/L and 43 Iu/L and 48 Iu/L and 60 Iu/L and 51 Iu/L and 47 Iu/L and 30 Iu/L and 41 Iu/L and 67 Iu/L and the Glob [2] was 2.4 G/Dl and 3.1 G/Dl and 2.5 G/Dl and 2.6 G/Dl and 2.8 G/Dl and 2.9 G/Dl and 2.7 G/Dl and 3.3 G/Dl and 3.2 G/Dl and 2.3 G/Dl and 2.2 G/Dl. For the same compound, the Gluc [2] was 77 Mg/Dl and 54 Mg/Dl and 69 Mg/Dl and 48 Mg/Dl and 57 Mg/Dl and 50 Mg/Dl and 62 Mg/Dl and 56 Mg/Dl and 65 Mg/Dl and 75 Mg/Dl and 83 Mg/Dl and 64 Mg/Dl and 58 Mg/Dl and 73 Mg/Dl and 55 Mg/Dl and 63 Mg/Dl, the K [2] was 3.5 Meq/L and 4 Meq/L and 3.4 Meq/L and 3.3 Meq/L and 3.6 Meq/L and 3.7 Meq/L and 3.9 Meq/L and 2.9 Meq/L and 3.8 Meq/L and 4.1 Meq/L and the Ldh [2] was 508 Iu/L and 636 Iu/L and 140 Iu/L and 492 Iu/L and 348 Iu/L and 387 Iu/L and 493 Iu/L and 399 Iu/L and 281 Iu/L and 157 Iu/L and 1914 Iu/L and 2200 Iu/L and 274 Iu/L and 247 Iu/L and 194 Iu/L and 1688 Iu/L and 241 Iu/L and 292 Iu/L and 122 Iu/L. For the same compound, the Na [2] was 148 Meq/L and 145 Meq/L and 149 Meq/L and 146 Meq/L and 147 Meq/L, the Osmo [2] was 286 Mosm/Kg and 278 Mosm/Kg and 284 Mosm/Kg and 285 Mosm/Kg and 280 Mosm/Kg and 291 Mosm/Kg and 283 Mosm/Kg and 282 Mosm/Kg and the Phos [2] was 3.1 Mg/Dl and 3.5 Mg/Dl and 3.7 Mg/Dl and 2.5 Mg/Dl and 4.3 Mg/Dl and 4.5 Mg/Dl and 4.2 Mg/Dl and 3 Mg/Dl and 2.4 Mg/Dl and 2.3 Mg/Dl and 3.4 Mg/Dl and 3.2 Mg/Dl and 2.7 Mg/Dl and 3.3 Mg/Dl and 4.8 Mg/Dl and 4 Mg/Dl. The Tbil [2] was 0.17 Mg/Dl and 0.1 Mg/Dl and 0.12 Mg/Dl and 0.16 Mg/Dl and 0.45 Mg/Dl and 0.41 Mg/Dl and 0.15 Mg/Dl and 0.14 Mg/Dl and 0.84 Mg/Dl and 0.19 Mg/Dl, the Tco2 [2] was 23 Meq/L and 25 Meq/L and 26 Meq/L and 27 Meq/L and 30 Meq/L and 31 Meq/L and 28 Meq/L and 29 Meq/L and 24 Meq/L and the Tibc [2] was 337 µg/dL and 401 µg/dL and 353 µg/dL and 346 µg/dL and 309 µg/dL and 409 µg/dL and 351 µg/dL and 396 µg/dL and 388 µg/dL and 371 µg/dL and 299 µg/dL and 267 µg/dL and 357 µg/dL and 410 µg/dL and 392 µg/dL and 358 µg/dL and 376 µg/dL and 424 µg/dL and 347 µg/dL and 320 µg/dL. The Tp [2] was 6.5 G/Dl and 6.7 G/Dl and 6.4 G/Dl and 6.8 G/Dl and 6.3 G/Dl and 6.9 G/Dl and 6.6 G/Dl and 6 G/Dl and 6.1 G/Dl and 6.2 G/Dl, the Trig [2] was 66 Mg/Dl and 105 Mg/Dl and 88 Mg/Dl and 84 Mg/Dl and 101 Mg/Dl and 120 Mg/Dl and 124 Mg/Dl and 77 Mg/Dl and 61 Mg/Dl and 137 Mg/Dl and 20 Mg/Dl and 24 Mg/Dl and 50 Mg/Dl and 111 Mg/Dl and 31 Mg/Dl and 141 Mg/Dl and 27 Mg/Dl and the Agap [3] was 15.1667 Meq/L. For the same compound, the Alb [3] was 3.839 G/Dl, the Alp [3] was 98.7222 Iu/L and the Alt [3] was 44.8889 Iu/L. The Ast [3] was 27.4444 Iu/L, the Bun [3] was 14.2778 Mg/Dl and the Ca [3] was 9.439 Mg/Dl. For the same compound, the Chol [3] was 138.5 mg/dL, the Ck [3] was 456.778 Iu/L and the Cl [3] was 110.167 Meq/L. For the same compound, the Crea [3] was 0.7289 Mg/Dl, the Fe [3] was 141.278 µg/dL and the Ggt [3] was 49.6667 Iu/L. It also gave a Glob [3] of 3.072 G/Dl, a Gluc [3] of 63.0556 Mg/Dl and a K [3] of 3.633 Meq/L. For the same compound, the Ldh [3] was 249.389 Iu/L, the Na [3] was 148.5 Meq/L and the Osmo [3] was 284.778 Mosm/Kg. It also gave a Phos [3] of 2.8 Mg/Dl, a Tbil [3] of 0.1683 Mg/Dl and a Tco2 [3] of 26.8889 Meq/L. The Tibc [3] was 368.167 µg/dL, the Tp [3] was 6.906 G/Dl and the Trig [3] was 81.6111 Mg/Dl. For the same compound, the Agap [4] was 16 Meq/L and 17 Meq/L and 13 Meq/L and 15 Meq/L and 14 Meq/L, the Alb [4] was 3.9 G/Dl and 3.6 G/Dl and 3.8 G/Dl and 3.4 G/Dl and 3.5 G/Dl and 4.3 G/Dl and 4.1 G/Dl and 3.7 G/Dl and 4 G/Dl and the Alp [4] was 114 Iu/L and 109 Iu/L and 79 Iu/L and 146 Iu/L and 91 Iu/L and 93 Iu/L and 84 Iu/L and 108 Iu/L and 131 Iu/L and 72 Iu/L and 88 Iu/L and 136 Iu/L and 116 Iu/L and 65 Iu/L and 75 Iu/L and 90 Iu/L. For the same compound, the Alt [4] was 46 Iu/L and 63 Iu/L and 42 Iu/L and 89 Iu/L and 50 Iu/L and 33 Iu/L and 67 Iu/L and 24 Iu/L and 27 Iu/L and 69 Iu/L and 29 Iu/L and 22 Iu/L and 35 Iu/L and 40 Iu/L and 55 Iu/L and 44 Iu/L and 56 Iu/L, the Ast [4] was 40 Iu/L and 24 Iu/L and 28 Iu/L and 29 Iu/L and 25 Iu/L and 26 Iu/L and 33 Iu/L and 34 Iu/L and 20 Iu/L and 27 Iu/L and 15 Iu/L and 30 Iu/L and 23 Iu/L and the Bun [4] was 15 Mg/Dl and 16 Mg/Dl and 13 Mg/Dl and 12 Mg/Dl and 14 Mg/Dl and 11 Mg/Dl and 20 Mg/Dl. The Ca [4] was 9.7 Mg/Dl and 9.6 Mg/Dl and 9.1 Mg/Dl and 9.3 Mg/Dl and 9 Mg/Dl and 9.2 Mg/Dl and 10 Mg/Dl and 9.8 Mg/Dl and 9.5 Mg/Dl, the Chol [4] was 180 mg/dL and 175 mg/dL and 134 mg/dL and 115 mg/dL and 124 mg/dL and 127 mg/dL and 158 mg/dL and 141 mg/dL and 125 mg/dL and 122 mg/dL and 138 mg/dL and 154 mg/dL and 140 mg/dL and 113 mg/dL and 133 mg/dL and 148 mg/dL and 151 mg/dL and 119 mg/dL and the Ck [4] was 427 Iu/L and 338 Iu/L and 199 Iu/L and 479 Iu/L and 314 Iu/L and 233 Iu/L and 738 Iu/L and 1619 Iu/L and 353 Iu/L and 416 Iu/L and 382 Iu/L and 210 Iu/L and 648 Iu/L and 548 Iu/L and 237 Iu/L and 332 Iu/L and 197 Iu/L and 552 Iu/L and 206 Iu/L. For the same compound, the Cl [4] was 110 Meq/L and 109 Meq/L and 111 Meq/L and 108 Meq/L and 107 Meq/L and 113 Meq/L and 112 Meq/L, the Crea [4] was 0.56 Mg/Dl and 0.91 Mg/Dl and 0.71 Mg/Dl and 0.69 Mg/Dl and 0.85 Mg/Dl and 0.97 Mg/Dl and 0.62 Mg/Dl and 0.77 Mg/Dl and 0.78 Mg/Dl and 0.74 Mg/Dl and 0.76 Mg/Dl and 0.58 Mg/Dl and 0.65 Mg/Dl and 0.64 Mg/Dl and 0.68 Mg/Dl and the Fe [4] was 185 µg/dL and 145 µg/dL and 129 µg/dL and 168 µg/dL and 126 µg/dL and 124 µg/dL and 150 µg/dL and 181 µg/dL and 159 µg/dL and 113 µg/dL and 170 µg/dL and 84 µg/dL and 111 µg/dL and 169 µg/dL and 125 µg/dL and 154 µg/dL and 155 µg/dL. The Ggt [4] was 46 Iu/L and 64 Iu/L and 42 Iu/L and 53 Iu/L and 58 Iu/L and 67 Iu/L and 48 Iu/L and 30 Iu/L and 52 Iu/L and 31 Iu/L and 40 Iu/L and 35 Iu/L and 82 Iu/L and 37 Iu/L and 50 Iu/L and 65 Iu/L.
